Tests used:
Type in all cases: in vivo, Wistar rats
[1] = tested on: potassium oxonate and xanthine-induced hyperuricemic rats; assay: serum uric acid levels in hyperuricemic rats; conditions: oral gavage once daily for 14 days, vs model group (group B)
Experimental: (§1) 48 healthy specific pathogen-free (SPF) male Wistar rats (7 weeks, body weight: (200±20) g) were selected. In order to acclimate to a new environment, the 48 male rats were maintained in the animal house with the temperature of 22° C., the humidity of 10% to 60%, and 12 h/12 h light/dark cycle, and fed with standard diet and water ad libitum for 1 week. After the 1 week of acclimating, all experimental rats were randomly assigned to the following 6 groups with 8 rats per group: a control group (group A), a model group (group B), a Lactiplantibacillus plantarum strain BL-17 treated group (group C), a galacto-oligosaccharide-adenylic acid treated group (group D), a combination treated group (group E), and an allopurinol intervention treated group (positive control) (group F). […]
(§2) At the late stage of the experiment, fresh feces of the rats were collected and frozen in a −80° C. refrigerator. […] After being collected, the liver tissue was immediately rinsed with pre-cooled normal saline to remove blood, rapidly frozen in liquid nitrogen and then frozen at −80° C., and subsequently homogenized into liver homogenate, and then relevant indicators were determined. […]

XOD = assay: activity of XOD in serum and liver tissues of hyperuricemic rats; conditions: oral gavage once daily for 14 days, vs model group
Experimental: as §1, §2

[2] = tested on: potassium oxonate and xanthine-induced hyperuricemic rats; assay: serum creatinine levels in hyperuricemic rats; conditions: oral gavage once daily for 14 days, vs model group
Experimental: as §1, §2

[3] = tested on: potassium oxonate and xanthine-induced hyperuricemic rats; assay: urinary uric acid level in hyperuricemic rats; conditions: oral gavage once daily for 14 days, vs model group (group B)
Experimental: as §1

SMILES: Oc1ncnc2[nH]ncc12 [allopurinol]
- serum uric acid concentration compared with model group [1]: decrease
- activities of XOD in serum and liver compared with model group (XOD): decrease to varying degrees
- serum creatinine levels compared with hyperuricemia model group [2]: decrease
- urinary uric acid levels compared with model group [3]: decrease to urinary uric acid levels in rats of the control group
